Reference: patent US20250281457A1, “TREATMENT OR PREVENTION OF DENGUE VIRAL INFECTION” (Janssen Pharmaceuticals, Inc., priority 2022, published 2025)
Read-outs that look alike come from different tables or passages of the source.

Assay: Effect of food on plasma pharmacokinetics after single oral dose of SF2a/b (Example 2)
Type: in vivo, human
Conditions: both sexes, human, plasma, oral, 800 mg; for Tmax: read-out: tmax, Median
Experimental: The effect of food on the pharmacokinetics (PK) of Compound (a) was assessed in healthy participants after a single oral dose of SF2a/b, described in Example 1, administered at different dose levels in a randomized single dose, 2-period crossover study. The effect of food on the PK of Compound (a) was determined at 3 different dose levels (50 mg, 200 mg, and 800 mg) for a standardized breakfast; at one dose level (800 mg) for a high-fat, high-calorie breakfast; at two dose levels (200 mg and 800 mg) for a low-fat, low-calorie breakfast, as well as for a low-fat, high-calorie breakfast. 124 healthy adult participants (male and female, 18 to 55 years of age) were enrolled in this study. The volunteers were divided in six panels, which were organized as follows: • Panel […]: • Treatment D: A single 800-mg dose (4×200-mg tablets) of Compound (a) SF2b in fasted conditions. • Treatment E: A single 800-mg dose (4×200-mg tablets) of Compound (a) SF2b in fed conditions (standardized breakfast). • Treatments D and E (treatment sequence group 1 [n=8]: DE; treatment sequence group 2 [n=8]: ED). Panel 4, n=14: • Treatment F: A single 200-mg dose (1×200-mg tablet) of Compound (a) SF2b in fasted conditions. • Treatment G: A single 200-mg dose (1×200-mg tablet) of Compound (a) SF2b, in fed conditions (standardized breakfast). • Treatments F and G (treatment sequence group 1 [n=7]: FG; treatment sequence group 2 [n=7]: GF). Panel […]: • Treatment H: A single 50-mg dose (1×50-mg tablet) of Compound (a) SF2a in fasted conditions. • Treatment I: A single 50-mg dose (1×50-mg tablet) of Compound (a) SF2a in fed conditions (standardized breakfast). • Treatments H and I (treatment sequence group 1 [n=7]: HI; treatment sequence group 2 [n=7]: IH). Panel 6 (n=16): • Treatment J: single 800-mg dose (4×200-mg tablets) of Compound (a) administered as SF2b in fasted conditions. • Treatment K: single 800-mg dose (4×200-mg tablets) of Compound (a) administered as SF2b in fed conditions (high-fat, high-calorie breakfast). • Treatments J and K (treatment sequence group 1 [n=8]: JK; treatment sequence group 2 [n=8]: KJ). Panel 7 (n=32): • Treatment L: single 800-mg dose (4×200-mg tablets) of Compound (a) administered as SF2b in fed conditions (low-fat, low-calorie breakfast). • Treatment M: single 800-mg dose (4×200-mg tablets) of Compound (a) administered as SF2b in fed conditions (low-fat, high-calorie breakfast). • Treatment L (n=16) or Treatment M (n=16). Panel 8 (n=32): • Treatment N: single 200-mg dose (1×200-mg tablet) of Compound (a) administered as SF2b in fed conditions (low-fat, low-calorie breakfast). • Treatment O: single 200-mg dose (1×200-mg tablet) of Compound (a) administered as SF2b in fed conditions (low-fat, high-calorie breakfast). • Treatment N (n=16) or Treatment O (n=16). Tablets were administered orally, together with approximately 240 mL of non-carbonated water, in fasted or fed conditions. […] On day 1 of all treatments in each panel, the participants had fasted overnight for at least 10 hours before study drug intake. Intake of water was not allowed from 2 hours before and until 2 hours after study drug intake, except for the water used for study drug intake and breakfast. In case of intake in fed conditions, study drug was administered within 10 minutes after completing a standardized breakfast (Treatments E, G, and I), or a high-fat, high-calorie breakfast (Treatment K), a low-fat, low-calorie breakfast (Treatments L and N), or a low-fat, high-calorie breakfast (Treatments M and O). For treatments E, G, and I a standardized breakfast was served, consisting of (or its equivalent) 4 slices of bread, 2 slices of ham or cheese, butter, jelly, and 1 or 2 cups (up to 355 mL) of decaffeinated coffee or tea with milk and/or sugar, if desired (containing approximately: fat: 21 g, carbohydrates: 67 g, proteins: 19 g; total calories: 533 kcal). For treatment K in a high-fat, high-calorie breakfast was served. […]

Cmax (800 mg SF2b, fed, high-fat, high-calorie breakfast, read-out: Cmax, Geometric LS Means Treatment K): 4050 ng/mL
AUC(0-t) (800 mg SF2b, fed, low-fat, high-calorie breakfast, read-out: AUClast, Geometric LS Means Treatment M): 227 µg·h/mL
AUC(0-inf) (800 mg SF2b, fed, low-fat, high-calorie breakfast, read-out: AUC∞, Geometric LS Means Treatment M): 237 µg·h/mL
Cmax (800 mg SF2b, fed, low-fat, high-calorie breakfast, read-out: Cmax, Geometric LS Means Treatment M): 2060 ng/mL
AUC(0-t) (800 mg SF2b, fed, low-fat, low-calorie breakfast, read-out: AUClast, Geometric LS Means Treatment L): 210 µg·h/mL
AUC(0-inf) (800 mg SF2b, fed, low-fat, low-calorie breakfast, read-out: AUC∞, Geometric LS Means Treatment L): 221 µg·h/mL
Cmax (800 mg SF2b, fed, low-fat, low-calorie breakfast, read-out: Cmax, Geometric LS Means Treatment L): 2060 ng/mL
AUC(0-t) (800 mg SF2b, fed, standardized breakfast (Tables 5F, 5H), read-out: AUClast, Geometric LS Means Treatment E): 347 µg·h/mL
AUC(0-inf) (800 mg SF2b, fed, standardized breakfast (Tables 5F, 5H), read-out: AUC∞, Geometric LS Means Treatment E): 341 µg·h/mL
Cmax (800 mg SF2b, fed, standardized breakfast (Tables 5F, 5H), read-out: Cmax, Geometric LS Means Treatment E): 3400 ng/mL
AUC(0-t) (800 mg SF2b, standardized breakfast, linear mixed effects model (Table 5A), read-out: AUClast, Geometric Mean Treatment E): 337 µg·h/mL
AUC(0-inf) (800 mg SF2b, standardized breakfast, linear mixed effects model (Table 5A), read-out: AUC∞, Geometric Mean Treatment E): 352 µg·h/mL
Cmax (800 mg SF2b, standardized breakfast, linear mixed effects model (Table 5A), read-out: Cmax, Geometric Mean Treatment E): 3380 ng/mL
AUC(0-t) (Treatment D: single 800 mg (SF2b), fasted, read-out: AUClast, Geo. Mean): 133 µg·h/mL
AUC(0-t) (Treatment D: single 800 mg (SF2b), fasted, read-out: AUClast, Mean): 149 µg·h/mL
AUC(0-t) (Treatment D: single 800 mg (SF2b), fasted, read-out: AUClast, Median): 138 µg·h/mL
AUC(0-inf) (Treatment D: single 800 mg (SF2b), fasted, read-out: AUC∞, Geo. Mean): 142 µg·h/mL
AUC(0-inf) (Treatment D: single 800 mg (SF2b), fasted, read-out: AUC∞, Mean): 160 µg·h/mL
AUC(0-inf) (Treatment D: single 800 mg (SF2b), fasted, read-out: AUC∞, Median): 144 µg·h/mL
Cmax (Treatment D: single 800 mg (SF2b), fasted, read-out: Cmax, Geo. Mean): 1150 ng/mL
Cmax (Treatment D: single 800 mg (SF2b), fasted, read-out: Cmax, Mean): 1300 ng/mL
Cmax (Treatment D: single 800 mg (SF2b), fasted, read-out: Cmax, Median): 1450 ng/mL
half-life (Treatment D: single 800 mg (SF2b), fasted, read-out: t1/2, term, Geo. Mean (converted)): 180 h
half-life (Treatment D: single 800 mg (SF2b), fasted, read-out: t1/2, term, Mean (converted)): 194 h
half-life (Treatment D: single 800 mg (SF2b), fasted, read-out: t1/2, term, Median (converted)): 179 h
Tmax (Treatment D: single 800 mg (SF2b), fasted): 8 h
AUC(0-t) (Treatment E: single 800 mg (SF2b), fed, standardized breakfast, read-out: AUClast, Geo. Mean): 340 µg·h/mL
AUC(0-t) (Treatment E: single 800 mg (SF2b), fed, standardized breakfast, read-out: AUClast, Mean): 357 µg·h/mL
AUC(0-t) (Treatment E: single 800 mg (SF2b), fed, standardized breakfast, read-out: AUClast, Median): 337 µg·h/mL
AUC(0-inf) (Treatment E: single 800 mg (SF2b), fed, standardized breakfast, read-out: AUC∞, Geo. Mean): 337 µg·h/mL
AUC(0-inf) (Treatment E: single 800 mg (SF2b), fed, standardized breakfast, read-out: AUC∞, Mean): 348 µg·h/mL
AUC(0-inf) (Treatment E: single 800 mg (SF2b), fed, standardized breakfast, read-out: AUC∞, Median): 345 µg·h/mL
Cmax (Treatment E: single 800 mg (SF2b), fed, standardized breakfast, read-out: Cmax, Geo. Mean): 3400 ng/mL
Cmax (Treatment E: single 800 mg (SF2b), fed, standardized breakfast, read-out: Cmax, Mean): 3500 ng/mL
Cmax (Treatment E: single 800 mg (SF2b), fed, standardized breakfast, read-out: Cmax, Median): 3510 ng/mL
half-life (Treatment E: single 800 mg (SF2b), fed, standardized breakfast, read-out: t1/2, term, Geo. Mean (converted)): 166 h
half-life (Treatment E: single 800 mg (SF2b), fed, standardized breakfast, read-out: t1/2, term, Mean (converted)): 176 h
half-life (Treatment E: single 800 mg (SF2b), fed, standardized breakfast, read-out: t1/2, term, Median (converted)): 150 h
Tmax (Treatment E: single 800 mg (SF2b), fed, standardized breakfast): 6 h
Compound: COc1cc(NC(C(=O)c2c[nH]c3ccc(OC(F)(F)F)cc23)c2ccc(Cl)cc2OC)cc(S(C)(=O)=O)c1 (stereo not drawn) [Compound (a)]
